Laboratory results taken from the NIST ThermoML archive (doi:10.1016/j.fluid.2005.06.010).

Assay: xn = mol fraction of the nth substance listed
Conditions: Fluid (supercritical or subcritical phases), Vibrating tube method

c1ccc2ccccc2c1 [naphthalene] + O=C=O
Conditions | mass density [kg/m3]
313.11 K, 8747 kPa, x1 = 0.0049 | 531.42
313.11 K, 8855 kPa, x1 = 0.0049 | 556.55
313.11 K, 8983 kPa, x1 = 0.0093 | 627.46
313.11 K, 9034 kPa, x1 = 0.0093 | 633.13
313.11 K, 9048 kPa, x1 = 0.0049 | 590.85
313.11 K, 9499 kPa, x1 = 0.0049 | 639
313.11 K, 9997 kPa, x1 = 0.0049 | 670.97
313.11 K, 10053 kPa, x1 = 0.0093 | 697.27
313.11 K, 11012 kPa, x1 = 0.0049 | 712.47
313.11 K, 11036 kPa, x1 = 0.0093 | 731.61
313.11 K, 11998 kPa, x1 = 0.0093 | 755.87
313.11 K, 12044 kPa, x1 = 0.0049 | 741.27
313.11 K, 12486 kPa, x1 = 0.0173 | 783.64
313.11 K, 12995 kPa, x1 = 0.0049 | 761.49
313.11 K, 13003 kPa, x1 = 0.0093 | 775.73
313.11 K, 13034 kPa, x1 = 0.0173 | 790.35
313.11 K, 14017 kPa, x1 = 0.0049 | 779.61
313.11 K, 14028 kPa, x1 = 0.0093 | 792.52
313.11 K, 14045 kPa, x1 = 0.0173 | 805.22
313.11 K, 14979 kPa, x1 = 0.0049 | 794.2
313.11 K, 14995 kPa, x1 = 0.0093 | 806.12
313.11 K, 15031 kPa, x1 = 0.0173 | 818.06
313.11 K, 16007 kPa, x1 = 0.0093 | 818.64
313.11 K, 16029 kPa, x1 = 0.0049 | 808.12
313.11 K, 16046 kPa, x1 = 0.0173 | 829.54
313.11 K, 16999 kPa, x1 = 0.0049 | 819.57
313.11 K, 17003 kPa, x1 = 0.0093 | 829.62
313.11 K, 17015 kPa, x1 = 0.0173 | 839.94
313.11 K, 18017 kPa, x1 = 0.0173 | 849.35
313.11 K, 18019 kPa, x1 = 0.0093 | 839.78
313.11 K, 18053 kPa, x1 = 0.0049 | 830.86
313.11 K, 19023 kPa, x1 = 0.0049 | 840.37
313.11 K, 19029 kPa, x1 = 0.0093 | 849.05
313.11 K, 19030 kPa, x1 = 0.0173 | 858.05
313.11 K, 19995 kPa, x1 = 0.0093 | 857.27
313.11 K, 20008 kPa, x1 = 0.0049 | 849.27
313.11 K, 20013 kPa, x1 = 0.0173 | 865.93
313.11 K, 20987 kPa, x1 = 0.0049 | 857.52
313.11 K, 20997 kPa, x1 = 0.0093 | 865.26
313.11 K, 21031 kPa, x1 = 0.0173 | 873.48
313.11 K, 21996 kPa, x1 = 0.0049 | 865.5
313.11 K, 22000 kPa, x1 = 0.0093 | 872.7
313.11 K, 22008 kPa, x1 = 0.0173 | 880.38
313.11 K, 22977 kPa, x1 = 0.0049 | 872.82
313.11 K, 22989 kPa, x1 = 0.0173 | 886.86
313.11 K, 22998 kPa, x1 = 0.0093 | 879.67
313.11 K, 24021 kPa, x1 = 0.0093 | 886.44
313.11 K, 24036 kPa, x1 = 0.0173 | 893.38
313.11 K, 24043 kPa, x1 = 0.0049 | 880.36
313.11 K, 24684 kPa, x1 = 0.0173 | 897.25
313.11 K, 24941 kPa, x1 = 0.0093 | 892.28
313.13 K, 10564 kPa, x1 = 0.0144 | 726.54
313.13 K, 10994 kPa, x1 = 0.0144 | 737.45
313.13 K, 12022 kPa, x1 = 0.0144 | 761.26
313.13 K, 13026 kPa, x1 = 0.0144 | 779.83
313.13 K, 13996 kPa, x1 = 0.0144 | 794.9
313.13 K, 15027 kPa, x1 = 0.0144 | 808.74
313.13 K, 16009 kPa, x1 = 0.0144 | 820.49
313.13 K, 16978 kPa, x1 = 0.0144 | 831.02
313.13 K, 17970 kPa, x1 = 0.0144 | 840.48
313.13 K, 19038 kPa, x1 = 0.0144 | 850.11
313.13 K, 20010 kPa, x1 = 0.0144 | 858.26
313.13 K, 21047 kPa, x1 = 0.0144 | 866.4
313.13 K, 22028 kPa, x1 = 0.0144 | 873.6
313.13 K, 23018 kPa, x1 = 0.0144 | 880.48
313.13 K, 24032 kPa, x1 = 0.0144 | 887.14
313.13 K, 25059 kPa, x1 = 0.0144 | 893.55
318.03 K, 13470 kPa, x1 = 0.0198 | 763.8
318.03 K, 13587 kPa, x1 = 0.0198 | 765.92
318.03 K, 13765 kPa, x1 = 0.0198 | 769.11
318.03 K, 13870 kPa, x1 = 0.0198 | 770.92
318.03 K, 13982 kPa, x1 = 0.0198 | 772.89
318.03 K, 14098 kPa, x1 = 0.0198 | 774.83
318.03 K, 14247 kPa, x1 = 0.0198 | 777.23
318.03 K, 14369 kPa, x1 = 0.0198 | 779.18
318.03 K, 14487 kPa, x1 = 0.0198 | 781.08
318.03 K, 14571 kPa, x1 = 0.0198 | 782.37
318.03 K, 14668 kPa, x1 = 0.0198 | 783.91
318.03 K, 14765 kPa, x1 = 0.0198 | 785.29
318.03 K, 14877 kPa, x1 = 0.0198 | 787
318.03 K, 14970 kPa, x1 = 0.0198 | 788.42
318.03 K, 15080 kPa, x1 = 0.0198 | 789.97
318.03 K, 15304 kPa, x1 = 0.0198 | 793.1
318.03 K, 15487 kPa, x1 = 0.0198 | 795.62
318.03 K, 16010 kPa, x1 = 0.0198 | 802.31
318.03 K, 16995 kPa, x1 = 0.0198 | 813.73
318.03 K, 17979 kPa, x1 = 0.0198 | 824.06
318.03 K, 18989 kPa, x1 = 0.0198 | 833.74
318.03 K, 20016 kPa, x1 = 0.0198 | 842.78
318.03 K, 20955 kPa, x1 = 0.0198 | 850.43
318.03 K, 21951 kPa, x1 = 0.0198 | 858.04
318.03 K, 22703 kPa, x1 = 0.0198 | 863.41
318.07 K, 18008 kPa, x1 = 0.0235 | 829.61
318.07 K, 18511 kPa, x1 = 0.0235 | 834.41
318.07 K, 19022 kPa, x1 = 0.0235 | 839.2
318.07 K, 19528 kPa, x1 = 0.0235 | 843.76
318.07 K, 20035 kPa, x1 = 0.0235 | 848.15
318.07 K, 20519 kPa, x1 = 0.0235 | 852.18
318.07 K, 21009 kPa, x1 = 0.0235 | 856.16
318.07 K, 22034 kPa, x1 = 0.0235 | 864
318.07 K, 23008 kPa, x1 = 0.0235 | 870.96
318.07 K, 23971 kPa, x1 = 0.0235 | 877.49
318.07 K, 24665 kPa, x1 = 0.0235 | 882.02
318.08 K, 12165 kPa, x1 = 0.0144 | 719.15
318.08 K, 12357 kPa, x1 = 0.0144 | 724.21
318.08 K, 12493 kPa, x1 = 0.0144 | 727.5
318.08 K, 13016 kPa, x1 = 0.0144 | 739.71
318.08 K, 13476 kPa, x1 = 0.0144 | 749.33
318.08 K, 14019 kPa, x1 = 0.0144 | 759.61
318.08 K, 14983 kPa, x1 = 0.0144 | 775.77
318.08 K, 14983 kPa, x1 = 0.0173 | 784.34
318.08 K, 15997 kPa, x1 = 0.0144 | 790.28
318.08 K, 16066 kPa, x1 = 0.0173 | 799.24
318.08 K, 16997 kPa, x1 = 0.0144 | 803.04
318.08 K, 16997 kPa, x1 = 0.0173 | 810.5
318.08 K, 17981 kPa, x1 = 0.0144 | 814.33
318.08 K, 18010 kPa, x1 = 0.0173 | 821.53
318.08 K, 18981 kPa, x1 = 0.0144 | 824.7
318.08 K, 19014 kPa, x1 = 0.0173 | 831.51
318.08 K, 20037 kPa, x1 = 0.0173 | 840.84
318.08 K, 20042 kPa, x1 = 0.0144 | 834.82
318.08 K, 20902 kPa, x1 = 0.0144 | 842.42
318.08 K, 20967 kPa, x1 = 0.0173 | 848.79
318.08 K, 21935 kPa, x1 = 0.0144 | 850.92
318.08 K, 22018 kPa, x1 = 0.0173 | 857.06
318.08 K, 22960 kPa, x1 = 0.0144 | 858.89
318.08 K, 22995 kPa, x1 = 0.0173 | 864.32
318.08 K, 23932 kPa, x1 = 0.0144 | 865.94
318.08 K, 23962 kPa, x1 = 0.0173 | 871.14
318.08 K, 24764 kPa, x1 = 0.0173 | 876.56
318.08 K, 24829 kPa, x1 = 0.0144 | 872.11
318.11 K, 9524 kPa, x1 = 0.0065 | 513.41
318.11 K, 9601 kPa, x1 = 0.0049 | 505.2
318.11 K, 9622 kPa, x1 = 0.0065 | 527.97
318.11 K, 9697 kPa, x1 = 0.0049 | 521.21
318.11 K, 9722 kPa, x1 = 0.0065 | 543.81
318.11 K, 9775 kPa, x1 = 0.0049 | 532.95
318.11 K, 9801 kPa, x1 = 0.0065 | 554.22
318.11 K, 9898 kPa, x1 = 0.0065 | 566.44
318.11 K, 9974 kPa, x1 = 0.0049 | 559.06
318.11 K, 9975 kPa, x1 = 0.0065 | 575.84
318.11 K, 10075 kPa, x1 = 0.0065 | 586.3
318.11 K, 10181 kPa, x1 = 0.0065 | 596.66
318.11 K, 10293 kPa, x1 = 0.0065 | 606.9
318.11 K, 10405 kPa, x1 = 0.0065 | 616.37
318.11 K, 10523 kPa, x1 = 0.0049 | 610.25
318.11 K, 10629 kPa, x1 = 0.0065 | 632.61
318.11 K, 10763 kPa, x1 = 0.0093 | 652.77
318.11 K, 10830 kPa, x1 = 0.0065 | 645.51
318.11 K, 10978 kPa, x1 = 0.0093 | 663.58
318.11 K, 10980 kPa, x1 = 0.0049 | 639.71
318.11 K, 11049 kPa, x1 = 0.0065 | 657.73
318.11 K, 11516 kPa, x1 = 0.0065 | 679.19
318.11 K, 11989 kPa, x1 = 0.0093 | 702.27
318.11 K, 12007 kPa, x1 = 0.0049 | 684.72
318.11 K, 12072 kPa, x1 = 0.0065 | 699.49
318.11 K, 12537 kPa, x1 = 0.0065 | 713.68
318.11 K, 12998 kPa, x1 = 0.0093 | 729.76
318.11 K, 13017 kPa, x1 = 0.0065 | 726.51
318.11 K, 13024 kPa, x1 = 0.0049 | 715.37
318.11 K, 13986 kPa, x1 = 0.0049 | 737.86
318.11 K, 14066 kPa, x1 = 0.0093 | 752.41
318.11 K, 14069 kPa, x1 = 0.0065 | 749.53
318.11 K, 14967 kPa, x1 = 0.0093 | 768.35
318.11 K, 14970 kPa, x1 = 0.0049 | 756.77
318.11 K, 15010 kPa, x1 = 0.0065 | 766.43
318.11 K, 15879 kPa, x1 = 0.0065 | 779.94
318.11 K, 15977 kPa, x1 = 0.0049 | 773.28
